Test [1] addresses Matrix metalloproteinase-9 (Homo sapiens, UniProt P14780).
Description: Inhibitory activity against the Matrix metalloprotease-9
For another test, the target named is Neutrophil collagenase (Homo sapiens, UniProt P22894).
For the next test, the target named is T1, Interstitial collagenase (Homo sapiens, UniProt P03956).
T1 sequence (P03956 whole entry): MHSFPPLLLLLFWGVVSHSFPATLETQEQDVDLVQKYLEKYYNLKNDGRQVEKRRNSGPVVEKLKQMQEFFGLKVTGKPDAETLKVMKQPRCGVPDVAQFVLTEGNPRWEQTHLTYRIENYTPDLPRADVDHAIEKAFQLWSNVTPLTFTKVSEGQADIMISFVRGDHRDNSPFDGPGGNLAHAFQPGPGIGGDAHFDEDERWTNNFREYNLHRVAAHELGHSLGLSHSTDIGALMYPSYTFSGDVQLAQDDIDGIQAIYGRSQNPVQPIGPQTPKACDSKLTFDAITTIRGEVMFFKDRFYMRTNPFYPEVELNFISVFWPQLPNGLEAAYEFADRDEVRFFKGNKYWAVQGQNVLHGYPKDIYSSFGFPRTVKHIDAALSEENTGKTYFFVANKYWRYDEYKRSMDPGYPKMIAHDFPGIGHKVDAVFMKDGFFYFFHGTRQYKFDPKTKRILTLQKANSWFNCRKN

Test [2] has as its target 72 kDa type IV collagenase (Homo sapiens, UniProt P08253).
Description: Inhibitory activity against the Matrix Metalloprotease 2 (MMP-2)

pKi: −log10 of the molar value.

The term pKi denotes the Ki on a negative log10 scale, so that one unit is a factor of ten. The low end stands for a large Ki, the high end for a small Ki.

Sequence of 72 kDa type IV collagenase (P08253 whole entry): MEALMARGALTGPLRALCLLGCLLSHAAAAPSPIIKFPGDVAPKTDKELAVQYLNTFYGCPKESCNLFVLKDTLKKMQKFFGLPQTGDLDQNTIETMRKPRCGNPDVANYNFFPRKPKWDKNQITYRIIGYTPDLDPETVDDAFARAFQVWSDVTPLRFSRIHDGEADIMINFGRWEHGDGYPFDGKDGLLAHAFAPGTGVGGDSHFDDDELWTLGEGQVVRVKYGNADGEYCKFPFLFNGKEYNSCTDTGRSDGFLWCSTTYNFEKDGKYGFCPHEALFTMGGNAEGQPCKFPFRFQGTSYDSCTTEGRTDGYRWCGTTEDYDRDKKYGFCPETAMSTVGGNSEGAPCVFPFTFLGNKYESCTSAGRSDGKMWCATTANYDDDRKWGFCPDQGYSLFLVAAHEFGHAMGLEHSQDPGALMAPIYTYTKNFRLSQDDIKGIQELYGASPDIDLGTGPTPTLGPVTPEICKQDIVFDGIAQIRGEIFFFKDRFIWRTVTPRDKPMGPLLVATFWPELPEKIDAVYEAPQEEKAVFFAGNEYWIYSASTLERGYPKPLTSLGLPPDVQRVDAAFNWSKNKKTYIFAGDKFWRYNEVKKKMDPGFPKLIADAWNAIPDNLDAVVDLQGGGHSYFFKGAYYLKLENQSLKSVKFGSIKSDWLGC
Sequence of Matrix metalloproteinase-9 (P14780 whole entry): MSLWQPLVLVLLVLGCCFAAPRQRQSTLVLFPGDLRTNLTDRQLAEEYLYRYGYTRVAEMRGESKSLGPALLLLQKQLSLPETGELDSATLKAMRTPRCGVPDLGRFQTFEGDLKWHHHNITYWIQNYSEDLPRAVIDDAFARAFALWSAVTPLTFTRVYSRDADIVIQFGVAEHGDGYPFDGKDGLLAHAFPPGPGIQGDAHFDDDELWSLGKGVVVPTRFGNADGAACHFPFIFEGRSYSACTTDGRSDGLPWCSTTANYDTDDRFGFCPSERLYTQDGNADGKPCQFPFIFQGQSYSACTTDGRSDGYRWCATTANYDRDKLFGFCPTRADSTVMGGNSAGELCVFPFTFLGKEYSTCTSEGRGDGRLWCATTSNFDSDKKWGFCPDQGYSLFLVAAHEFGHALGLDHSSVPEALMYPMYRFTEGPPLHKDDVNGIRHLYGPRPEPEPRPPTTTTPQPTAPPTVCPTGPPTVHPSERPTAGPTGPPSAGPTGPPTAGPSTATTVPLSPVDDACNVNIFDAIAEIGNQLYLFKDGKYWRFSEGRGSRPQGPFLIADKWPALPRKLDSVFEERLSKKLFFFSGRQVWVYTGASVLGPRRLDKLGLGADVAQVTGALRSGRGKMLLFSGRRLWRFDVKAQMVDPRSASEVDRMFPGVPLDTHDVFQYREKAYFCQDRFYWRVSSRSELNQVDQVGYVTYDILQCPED
Sequence of Neutrophil collagenase (P22894 whole entry): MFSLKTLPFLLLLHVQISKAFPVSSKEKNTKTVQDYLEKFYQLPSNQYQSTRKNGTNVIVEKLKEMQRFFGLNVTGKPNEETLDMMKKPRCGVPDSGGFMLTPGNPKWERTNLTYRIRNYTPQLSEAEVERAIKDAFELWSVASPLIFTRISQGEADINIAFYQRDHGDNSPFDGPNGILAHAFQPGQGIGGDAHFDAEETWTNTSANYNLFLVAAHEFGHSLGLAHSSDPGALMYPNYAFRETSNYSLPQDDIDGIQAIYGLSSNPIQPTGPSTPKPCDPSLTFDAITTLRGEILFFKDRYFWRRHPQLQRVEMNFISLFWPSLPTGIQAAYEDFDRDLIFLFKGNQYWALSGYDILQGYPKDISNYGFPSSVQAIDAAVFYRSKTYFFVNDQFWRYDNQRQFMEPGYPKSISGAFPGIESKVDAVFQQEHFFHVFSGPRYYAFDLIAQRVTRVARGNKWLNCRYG
Description for Interstitial collagenase: Inhibitory activity against the Matrix Metalloprotease 1 (MMP-1)
Description for Neutrophil collagenase: Inhibitory activity against the Matrix Metalloprotease-8

Turning to `CC(C)(C)OC(=O)Nc1cccc(S(=O)(=O)N(CC(=O)NO)Cc2ccc([N+](=O)[O-])cc2)c1`, the pKi in test [1] is 7.85; on Neutrophil collagenase, 7.82; at Interstitial collagenase, 7.59; in test [2], 7.96.

Consider `CN(C)c1cccc2c(S(=O)(=O)N(CC(=O)NO)Cc3ccc([N+](=O)[O-])cc3)cccc12`, for which the pKi is 7.28 in test [1], 7.24 on Neutrophil collagenase, 7.08 at Interstitial collagenase and 7.39 in test [2].

Take `CC(C)(C)OC(=O)Nc1ccc(S(=O)(=O)N(CC(=O)NO)Cc2ccc([N+](=O)[O-])cc2)cc1`: the pKi was 8.00 in test [1], 7.96 on Neutrophil collagenase, 7.77 at Interstitial collagenase and 8.00 in test [2].

For `CS(=O)(=O)N(CC(=O)NO)Cc1ccc([N+](=O)[O-])cc1`, the negative logarithm of the Ki (pKi) in test [1] was 7.52; at Neutrophil collagenase, 7.62; at Interstitial collagenase, 7.12; in test [2], 7.72.

`O=C(CN(Cc1ccc([N+](=O)[O-])cc1)S(=O)(=O)c1ccc([N+](=O)[O-])cc1)NO`: the negative logarithm of the Ki (pKi) in test [1] was 8.10; on Neutrophil collagenase it was 8.15; on Interstitial collagenase it was 7.82; in test [2] it was 8.05.

Take `O=C(CN(Cc1ccc([N+](=O)[O-])cc1)S(=O)(=O)c1cccs1)NO`: the pKi in test [1] was 8.00; on Neutrophil collagenase, 7.92; at Interstitial collagenase it was 7.85; in test [2], 7.89.

As to `Cc1ccccc1S(=O)(=O)NC(=O)Nc1cccc(S(=O)(=O)N(CC(=O)NO)Cc2ccc([N+](=O)[O-])cc2)c1`, the pKi is 8.52 in test [1], 8.70 on Neutrophil collagenase, 7.24 at Interstitial collagenase and 8.55 in test [2].

Turning to `O=C(O)CN(Cc1ccc([N+](=O)[O-])cc1)S(=O)(=O)c1ccc(NC(=O)NS(=O)(=O)c2ccc(Cl)cc2)cc1`, the negative-log Ki (pKi) is 7.44 in test [1], 7.62 on Neutrophil collagenase, 7.02 at Interstitial collagenase and 7.68 in test [2].

As to `Cc1ccc(S(=O)(=O)NC(=O)Nc2ccc(S(=O)(=O)N(CC(=O)O)Cc3ccc([N+](=O)[O-])cc3)cc2)cc1`, the negative-log Ki (pKi) in test [1] was 7.60; at Neutrophil collagenase, 7.55; on Interstitial collagenase, 7.03; in test [2], 7.62.

Turning to `O=C(CN(Cc1ccc([N+](=O)[O-])cc1)S(=O)(=O)c1ccc(NC(=O)NS(=O)(=O)c2ccccc2)cc1)NO`, the negative-log Ki (pKi) in test [1] was 9.05; on Neutrophil collagenase it was 9.15; at Interstitial collagenase, 7.21; in test [2], 9.22.

Regarding `O=C(CN(Cc1ccc([N+](=O)[O-])cc1)S(=O)(=O)c1ccc(F)cc1)NO`, the negative-log Ki (pKi) in test [1] was 7.85; at Neutrophil collagenase, 7.82; on Interstitial collagenase it was 7.72; in test [2], 7.82.

Turning to `O=C(O)CN(Cc1ccc([N+](=O)[O-])cc1)S(=O)(=O)c1ccc(NC(=O)NS(=O)(=O)c2ccccc2)cc1`, the negative-log Ki (pKi) was 7.68 in test [1], 7.64 at Neutrophil collagenase, less than 7.00 at Interstitial collagenase and 7.74 in test [2].

Regarding `Cc1ccc(S(=O)(=O)NC(=O)Nc2cccc(S(=O)(=O)N(CC(=O)NO)Cc3ccc([N+](=O)[O-])cc3)c2)cc1`, the pKi in test [1] is 8.51; on Neutrophil collagenase it was 8.68; at Interstitial collagenase, 7.28; in test [2] it was 8.60.

As for `Cc1ccc(S(=O)(=O)N(CC(=O)NO)Cc2ccc([N+](=O)[O-])cc2)cc1`, the pKi in test [1] is 7.57; on Neutrophil collagenase it was 7.62; at Interstitial collagenase it was 7.52; in test [2], 7.70.

Consider `Cc1ccc(S(=O)(=O)NC(=O)Nc2cccc(S(=O)(=O)N(CC(=O)O)Cc3ccc([N+](=O)[O-])cc3)c2)cc1`, for which the negative logarithm of the Ki (pKi) in test [1] was 7.68; on Neutrophil collagenase, 7.52; on Interstitial collagenase, less than 7.00; in test [2] it was 7.68.

As for `O=C(CN(Cc1ccc([N+](=O)[O-])cc1)S(=O)(=O)c1ccc(C(=O)O)cc1)NO`, the pKi in test [1] is 8.55; at Neutrophil collagenase it was 8.62; on Interstitial collagenase it was 7.47; in test [2], 8.60.

On to `O=C(CN(Cc1ccc([N+](=O)[O-])cc1)S(=O)(=O)c1ccc(NC(=O)NS(=O)(=O)c2ccc(Cl)cc2)cc1)NO`, for which the negative-log Ki (pKi) in test [1] is 9.00; at Neutrophil collagenase, 8.96; on Interstitial collagenase, 7.30; in test [2], 9.10.

Consider `O=C(CN(Cc1ccc([N+](=O)[O-])cc1)C(=O)Nc1cccc2ccccc12)NO`, for which the pKi in test [1] was 7.48; on Neutrophil collagenase, 7.41; on Interstitial collagenase, less than 7.00; in test [2] it was 7.46.

Take `O=C(CN(Cc1ccc([N+](=O)[O-])cc1)C(=S)NC(=O)c1ccccc1)NO`: the pKi in test [1] was 8.85; at Neutrophil collagenase, 8.82; at Interstitial collagenase, 7.43; in test [2], 8.70.

For the compound `O=C(CN(Cc1ccc([N+](=O)[O-])cc1)C(=O)NS(=O)(=O)c1ccccc1)NO`, the pKi in test [1] was 8.52; on Neutrophil collagenase it was 8.40; at Interstitial collagenase, 7.41; in test [2] it was 8.30.

On to `CC(=O)Nc1ccc(S(=O)(=O)N(CC(=O)NO)Cc2ccc([N+](=O)[O-])cc2)cc1`, for which the negative logarithm of the Ki (pKi) in test [1] was 7.92; at Neutrophil collagenase it was 8.05; on Interstitial collagenase, 7.85; in test [2], 8.10.

For the compound `O=C(CN(Cc1ccc([N+](=O)[O-])cc1)S(=O)(=O)C(F)(F)C(F)(F)C(F)(F)C(F)(F)C(F)(F)C(F)(F)C(F)(F)C(F)(F)F)NO`, the pKi in test [1] was 8.89; on Neutrophil collagenase, 8.89; on Interstitial collagenase, 7.10; in test [2], 9.05.

Regarding `O=C(CN(Cc1ccc([N+](=O)[O-])cc1)C(=O)Nc1ccc(Cl)c(Cl)c1)NO`, the pKi in test [1] was 8.15; at Neutrophil collagenase, 8.30; on Interstitial collagenase it was 7.51; in test [2] it was 8.22.

As for `O=C(CN(Cc1ccc([N+](=O)[O-])cc1)S(=O)(=O)c1ccc(I)cc1)NO`, the pKi was 7.80 in test [1], 7.77 on Neutrophil collagenase, 7.54 at Interstitial collagenase and 7.72 in test [2].

Take `Cc1ccccc1S(=O)(=O)NC(=O)Nc1ccc(S(=O)(=O)N(CC(=O)NO)Cc2ccc([N+](=O)[O-])cc2)cc1`: the negative logarithm of the Ki (pKi) is 9.15 in test [1], 8.82 on Neutrophil collagenase, 7.14 at Interstitial collagenase and 8.80 in test [2].

As to `O=C(CN(Cc1ccc([N+](=O)[O-])cc1)S(=O)(=O)c1ccccc1[N+](=O)[O-])NO`, the negative logarithm of the Ki (pKi) is 7.85 in test [1], 7.89 on Neutrophil collagenase, 7.23 on Interstitial collagenase and 7.82 in test [2].

On to `O=C(CN(Cc1ccc([N+](=O)[O-])cc1)S(=O)(=O)C(Cl)(Cl)Cl)NO`, for which the pKi was 7.60 in test [1], 7.72 at Neutrophil collagenase, 7.62 on Interstitial collagenase and 7.77 in test [2].

For `O=C(CN(Cc1ccc([N+](=O)[O-])cc1)S(=O)(=O)c1cccc(C(=O)O)c1)NO`, the negative logarithm of the Ki (pKi) in test [1] is 8.60; on Neutrophil collagenase it was 8.48; on Interstitial collagenase it was 7.39; in test [2], 8.52.

As for `O=C(CN(Cc1ccc([N+](=O)[O-])cc1)S(=O)(=O)c1cccc(NC(=O)NS(=O)(=O)c2ccccc2)c1)NO`, the pKi in test [1] was 8.89; on Neutrophil collagenase, 9.00; on Interstitial collagenase, 7.22; in test [2], 8.92.

Turning to `O=C(CN(Cc1ccc([N+](=O)[O-])cc1)S(=O)(=O)c1ccc(Br)cc1)NO`, the pKi in test [1] was 7.68; on Neutrophil collagenase, 7.68; at Interstitial collagenase, 7.60; in test [2] it was 7.89.

Source of the values: ChEMBL document CHEMBL1132937, “Protease inhibitors: synthesis of potent bacterial collagenase and matrix metalloproteinase inhibitors incorporating N-4-nitrobenzylsulfonylglycine hydroxamate moieties” (J Med Chem, 2000).
